# Patent US7396837B2, “Antitumoral analogs of lamellarins” (Pharma Mar, S.A.U., priority 2002, dated 2008)
# Like-named read-outs stand apart in the source and are kept apart here.
# Key:
# Assay type in all cases: cell-based
# DU-145 = experiment: SRB colorimetric cell growth inhibition assay, DU-145; details: Homo sapiens; for GI50: GI=growth inhibition, read-out: GI50 DU-145; for CC50: LC=cell killing (cytotoxic effect); for IC (TGI): TGI=total growth inhibition (cytostatic effect), read-out: TGI DU-145
# Outline: (§1)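 Cells are kept under uninterrupted exposure to compound. Staining with sulforhodamine B then measures cell growth and viability. Triplicate data give mean ± SD, from which growth inhibition, total growth inhibition and lethal concentration values follow.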
# H-MEC-1 = experiment: SRB colorimetric cell growth inhibition assay, H-MEC-1; details: Homo sapiens, HMEC-1, H-MEC-1; for GI50: GI=growth inhibition; for IC (TGI): TGI=total growth inhibition (cytostatic effect), read-out: TGI H-MEC-1
# From the text: (§2) Inhibition of Cell Growth by Colorimetric Assay.
# (§3) A colorimetric type of assay, using sulforhodamine B (SRB) reaction has been adapted for a quantitative measurement of cell growth and viability (following the technique described by P. A. Skehan, et al., J. Natl. Cancer Inst. 1990, 82, 1107-1112).
# (§4) This form of assay employs 96 well cell culture microplates of 9 mm diameter (T. Mosmann et al., J. of Immunological Methods 1983, 65, 55-63; G. T. Faircloth et al., J. of Tissue and Culture Methods 1988, 11, 201-205).
# (§5) Most of the cell lines are obtained from American Type Culture Collection (ATCC) derived from different human cancer types.
# (§6) The values for mean +/− SD of data from triplicate wells are calculated. Some parameters for cellular responses can be calculated: GI=growth inhibition, TGI=total growth inhibition (cytostatic effect) and LC=cell killing (cytotoxic effect).
# [1] = as above; details: human
# From the text: as §2, §3, §4, §5, §6
# SK-BR-3 = experiment: SRB colorimetric cell growth inhibition assay, SK-BR-3; details: Homo sapiens, SK-BR-3, SK-BR-3
# Outline: as §1
# LoVo-Dox = experiment: SRB colorimetric cell growth inhibition assay, LoVo-Dox (MDR); details: Homo sapiens; for GI50: GI=growth inhibition, read-out: GI50 LOVO-DOX; for CC50: cell killing (cytotoxic effect); for IC (TGI): total growth inhibition (cytostatic effect), read-out: TGI LOVO-DOX
# Outline: as §1
# SK-MEL-28 = experiment: SRB colorimetric cell growth inhibition assay, SK-MEL-28; details: Homo sapiens; for GI50: GI=growth inhibition, read-out: GI50 MEL-28; for CC50: LC=cell killing (cytotoxic effect); for IC (TGI): TGI=total growth inhibition (cytostatic effect), read-out: TGI MEL-28
# Outline: as §1
# K-562 = experiment: SRB colorimetric cell growth inhibition assay, K-562; details: Homo sapiens; for GI50: GI=growth inhibition, read-out: GI50 K-562; for CC50: cell killing (cytotoxic effect); for IC (TGI): total growth inhibition (cytostatic effect), read-out: TGI K-562
# Outline: as §1
# PANC-1 = experiment: SRB colorimetric cell growth inhibition assay, PANC-1; details: Homo sapiens; for GI50: GI=growth inhibition, read-out: GI50 PANC-1; for CC50: cell killing (cytotoxic effect); for IC (TGI): total growth inhibition (cytostatic effect), read-out: TGI PANC-1
# Outline: as §1
# LoVo = experiment: SRB colorimetric cell growth inhibition assay, LoVo; details: Homo sapiens, LoVo; for GI50: GI=growth inhibition, read-out: GI50 LOVO; for CC50: cell killing (cytotoxic effect); for IC (TGI): total growth inhibition (cytostatic effect), read-out: TGI LOVO
# Outline: as §1
# IGROV-ET = experiment: SRB colorimetric cell growth inhibition assay, IGROV-ET (ET-743 resistant); details: Homo sapiens; for GI50: GI=growth inhibition, read-out: GI50 IGROV-ET; for CC50: LC=cell killing (cytotoxic effect); for IC (TGI): TGI=total growth inhibition (cytostatic effect), read-out: TGI IGROV-ET
# Outline: as §1
# A-549 = experiment: SRB colorimetric cell growth inhibition assay, A-549; details: Homo sapiens; for GI50: GI=growth inhibition, read-out: GI50 A-549; for CC50: cell killing (cytotoxic effect); for IC (TGI): total growth inhibition (cytostatic effect), read-out: TGI A-549
# Outline: as §1
# SKOV-3 = experiment: SRB colorimetric cell growth inhibition assay, SKOV-3; details: Homo sapiens
# Outline: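 SRB colorimetric readout of cell growth/viability in 96-well format. Means ± SD from triplicate wells; GI (growth inhibition), TGI (total growth inhibition, cytostatic) and LC (cell killing, cytotoxic) parameters derived.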
# HT-29 = experiment: SRB colorimetric cell growth inhibition assay, HT-29; details: Homo sapiens; for GI50: GI=growth inhibition, read-out: GI50 HT-29; for CC50: cell killing (cytotoxic effect); for IC (TGI): total growth inhibition (cytostatic effect), read-out: TGI HT-29
# Outline: as §1
# IGROV = experiment: SRB colorimetric cell growth inhibition assay, IGROV; details: Homo sapiens, IGROV; for GI50: GI=growth inhibition, read-out: GI50 IGROV; for CC50: LC=cell killing (cytotoxic effect); for IC (TGI): TGI=total growth inhibition (cytostatic effect), read-out: TGI IGROV
# Outline: as §1
# LNCaP = experiment: SRB colorimetric cell growth inhibition assay, LNCaP; details: Homo sapiens, LNCaP
# Outline: as §1
SMILES,"GI50 (DU-145; DU-145, DU-145) [µM]","IC (TGI) (DU-145; DU-145, DU-145) [µM]",GI50 (H-MEC-1) [µM],IC (TGI) (H-MEC-1) [µM],GI50 (LoVo-Dox; LOVO-DOX) [µM],IC (TGI) (LoVo-Dox; LOVO-DOX) [µM],"GI50 (SK-MEL-28; SK-MEL-28, MEL-28) [µM]","IC (TGI) (SK-MEL-28; SK-MEL-28, MEL-28) [µM]","GI50 (K-562; K562, K-562) [µM]","IC (TGI) (K-562; K562, K-562) [µM]","GI50 (PANC-1; PANC-1, PANC-1) [µM]","IC (TGI) (PANC-1; PANC-1, PANC-1) [µM]",GI50 (LoVo) [µM],IC (TGI) (LoVo) [µM],GI50 (IGROV-ET; IGROV-ET) [µM],IC (TGI) (IGROV-ET; IGROV-ET) [µM],"GI50 (A-549; A549, A-549) [µM]","IC (TGI) (A-549; A549, A-549) [µM]","GI50 (HT-29; HT-29, HT-29) [µM]","IC (TGI) (HT-29; HT-29, HT-29) [µM]",other results
COc1cc(-c2c3n(c4c(=O)oc5cc(OC(=O)[C@H](C)N)c(OC)cc5c24)CCc2c-3cc(OC)c(OC)c2OC(=O)[C@H](C)N)ccc1OC(=O)[C@H](C)N [Compound 96],4.26,9.2,0.381,9.2,0.563,2.07,2.14,4.43,1.63,4.43,1.68,5.65,2.28,9.2,2.69,5.6,4.97,9.2,9.2,9.2,"CC50 (DU-145; DU-145, DU-145, read-out: LC50 DU-145): 9.2 µM; CC50 ([1]; H-MEC-1 cells, H-MEC-1, LC=cell killing (cytotoxic effect), read-out: LC50 H-MEC-1): 9.2 µM; GI50 (SK-BR-3; GI=growth inhibition, read-out: GI50 SK-BR-3): 0.417 µM; CC50 (SK-BR-3; LC=cell killing (cytotoxic effect), read-out: LC50 SK-BR-3): 5.47 µM; IC (TGI) (SK-BR-3; TGI=total growth inhibition (cytostatic effect), read-out: TGI SK-BR-3): 1.86 µM; CC50 (LoVo-Dox; LOVO-DOX, read-out: LC50 LOVO-DOX): 9.2 µM; CC50 (SK-MEL-28; SK-MEL-28, MEL-28, read-out: LC50 MEL-28): 9.18 µM; CC50 (K-562; K562, K-562, read-out: LC50 K-562): 9.2 µM; CC50 (PANC-1; PANC-1, PANC-1, read-out: LC50 PANC-1): 9.2 µM; CC50 (LoVo; read-out: LC50 LOVO): 9.2 µM; CC50 (IGROV-ET; IGROV-ET, read-out: LC50 IGROV-ET): 9.2 µM; CC50 (A-549; A549, A-549, read-out: LC50 A-549): 9.2 µM; GI50 (SKOV-3; SK-OV-3, SKOV-3, GI=growth inhibition, read-out: GI50 SKOV-3): 4.2 µM; CC50 (SKOV-3; SK-OV-3, SKOV-3, LC=cell killing (cytotoxic effect), read-out: LC50 SKOV-3): 9.2 µM; IC (TGI) (SKOV-3; SK-OV-3, SKOV-3, TGI=total growth inhibition (cytostatic effect), read-out: TGI SKOV-3): 9.2 µM; CC50 (HT-29; HT-29, HT-29, read-out: LC50 HT-29): 9.2 µM; GI50 (IGROV): 1.2 µM; CC50 (IGROV; read-out: LC50 IGROV): 7.54 µM; IC (TGI) (IGROV): 3.01 µM"
COc1cc(-c2c3n(c4c(=O)oc5cc(OC(=O)[C@@H](N)C(C)C)c(OC)cc5c24)CCc2c-3cc(OC)c(OC)c2OC(=O)[C@@H](N)C(C)C)ccc1OC(=O)[C@@H](N)C(C)C [Compound 128],1.33,2.48,1.53,3.16,0.403,1.49,1.57,3.03,1.11,2.98,0.888,2.31,0.854,1.92,0.689,2.26,1.61,3.23,1.95,3.54,"CC50 (DU-145; DU-145, read-out: LC50 DU-145, DU-145): 4.62 µM; CC50 ([1]; LC50 H-MEC-1): 6.53 µM; GI50 (LNCaP; LN-caP, GI=growth inhibition, read-out: GI50 LN-caP): 1.26 µM; IC (TGI) (LNCaP; LN-caP, TGI=total growth inhibition (cytostatic effect), read-out: TGI LN-caP): 2.69 µM; CC50 (LNCaP; read-out: LC50 LN-caP, LN-caP, LC=cell killing (cytotoxic effect)): 5.71 µM; CC50 (LoVo-Dox; read-out: LC50 LOVO-DOX, LOVO-DOX): 4.66 µM; CC50 (SK-MEL-28; SK-MEL-28, read-out: LC50 MEL-28, MEL-28): 5.86 µM; CC50 (K-562; K562, read-out: LC50 K-562, K-562): 8.01 µM; CC50 (PANC-1; PANC-1, read-out: LC50 PANC-1, PANC-1): 5.99 µM; CC50 (LoVo; read-out: LC50 LOVO, LOVO): 4.3 µM; CC50 (IGROV-ET; read-out: LC50 IGROV-ET, IGROV-ET): 7.59 µM; CC50 (A-549; A549, read-out: LC50 A-549, A-549): 6.45 µM; CC50 (HT-29; HT-29, read-out: LC50 HT-29, HT-29): 6.44 µM; CC50 (IGROV; read-out: LC50 IGROV, IGROV): 5.7 µM; GI50 (IGROV): 0.639 µM; IC (TGI) (IGROV): 1.98 µM"
